Assay results from the supplement of paper PMC10307832.

Key:
Assay in all cases: relative viability (nuclei count vs DMSO), 5 days (fraction); higher = more cells survive
EPLC-272H = tested on: EPLC-272H
Method in brief: (§1)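 After 5 days of treatment, lung cancer cells in 1536-well plates were fixed and stained in a single step (final 0.05% Triton X-100, 1% formaldehyde, 1 ug/ml Hoechst) and their nuclei counted on 4× images. Treatment had been applied by pin tool the day after seeding as one drug alone or as a fixed anchor-drug dose with five library-drug doses (not always all listed) in √10 steps. Relative viability is the nuclei count of treated wells divided by that of vehicle wells, and values are medians of duplicate plates.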

NCI-H1651 = tested on: NCI-H1651
Method in brief: as §1

NCI-H650 = tested on: NCI-H650
Method in brief: as §1

EMC-BAC-2 = tested on: EMC-BAC-2
Method in brief: as §1

NCI-H2023 = tested on: NCI-H2023
Method in brief: as §1

NCI-H1355 = tested on: NCI-H1355
Method in brief: as §1

UMC-11 = tested on: UMC-11
Method in brief: as §1

HCC-44 = tested on: HCC-44
Method in brief: as §1

SK-MES-1 = tested on: SK-MES-1
Method in brief: as §1

NCI-H2405 = tested on: NCI-H2405
Method in brief: as §1

NCI-H1944 = tested on: NCI-H1944
Method in brief: as §1

NCI-H2085 = tested on: NCI-H2085
Method in brief: as §1

NCI-H1793 = tested on: NCI-H1793
Method in brief: as §1

NCI-H1395 = tested on: NCI-H1395
Method in brief: as §1

LCLC-103H = tested on: LCLC-103H
Method in brief: as §1

NCI-H520 = tested on: NCI-H520
Method in brief: as §1

H3255 = tested on: H3255
Method in brief: as §1

NCI-H322M = tested on: NCI-H322M
Method in brief: as §1

ChaGo-K-1 = tested on: ChaGo-K-1
Method in brief: as §1

NCI-H2087 = tested on: NCI-H2087
Method in brief: as §1

LCLC-97TM1 = tested on: LCLC-97TM1
Method in brief: as §1

HCC-827 = tested on: HCC-827
Method in brief: as §1

## O=C(O)c1ccc(-c2c[nH]c3ncc(-c4ccccc4)cc23)cc1C1CCCC1 + Cc1cc(Nc2cc(N3CCN(C)CC3)nc(Sc3ccc(NC(=O)C4CC4)cc3)n2)n[nH]1 [Tozasertib] (partner 0.1 µM)
EPLC-272H; first compound 0.04 µM
  relative viability: 0.295
EPLC-272H; first compound 0.1265 µM
  relative viability: 0.313
EPLC-272H; first compound 0.4 µM
  relative viability: 0.274
EPLC-272H; first compound 1.265 µM
  relative viability: 0.0995
NCI-H1651; first compound 0.04 µM
  relative viability: 0.689
NCI-H1651; first compound 0.1265 µM
  relative viability: 0.708
NCI-H1651; first compound 0.4 µM
  relative viability: 0.559
NCI-H1651; first compound 1.265 µM
  relative viability: 0.481
NCI-H650; first compound 0.04 µM
  relative viability: 0.706
NCI-H650; first compound 0.1265 µM
  relative viability: 0.691
NCI-H650; first compound 0.4 µM
  relative viability: 0.641
NCI-H650; first compound 1.265 µM
  relative viability: 0.351
EMC-BAC-2; first compound 0.04 µM
  relative viability: 0.29
EMC-BAC-2; first compound 0.1265 µM
  relative viability: 0.283
EMC-BAC-2; first compound 0.4 µM
  relative viability: 0.272
EMC-BAC-2; first compound 1.265 µM
  relative viability: 0.272
NCI-H2023; first compound 0.04 µM
  relative viability: 0.374
NCI-H2023; first compound 0.1265 µM
  relative viability: 0.39
NCI-H2023; first compound 0.4 µM
  relative viability: 0.318
NCI-H2023; first compound 1.265 µM
  relative viability: 0.242
NCI-H1355; first compound 0.04 µM
  relative viability: 0.56
NCI-H1355; first compound 0.1265 µM
  relative viability: 0.632
NCI-H1355; first compound 0.4 µM
  relative viability: 0.522
NCI-H1355; first compound 1.265 µM
  relative viability: 0.281
UMC-11; first compound 0.04 µM
  relative viability: 0.189
UMC-11; first compound 0.1265 µM
  relative viability: 0.197
UMC-11; first compound 0.4 µM
  relative viability: 0.199
UMC-11; first compound 1.265 µM
  relative viability: 0.191
HCC-44; first compound 0.04 µM
  relative viability: 1.16
HCC-44; first compound 0.1265 µM
  relative viability: 1.15
HCC-44; first compound 0.4 µM
  relative viability: 0.853
HCC-44; first compound 1.265 µM
  relative viability: 0.616
SK-MES-1; first compound 0.04 µM
  relative viability: 0.93
SK-MES-1; first compound 0.1265 µM
  relative viability: 0.973
SK-MES-1; first compound 0.4 µM
  relative viability: 0.748
SK-MES-1; first compound 1.265 µM
  relative viability: 0.396
NCI-H2405; first compound 0.04 µM
  relative viability: 0.725
NCI-H2405; first compound 0.1265 µM
  relative viability: 0.806
NCI-H2405; first compound 0.4 µM
  relative viability: 0.648
NCI-H2405; first compound 1.265 µM
  relative viability: 0.583
NCI-H1944; first compound 0.04 µM
  relative viability: 0.231
NCI-H1944; first compound 0.1265 µM
  relative viability: 0.259
NCI-H1944; first compound 0.4 µM
  relative viability: 0.233
NCI-H1944; first compound 1.265 µM
  relative viability: 0.249
NCI-H2085; first compound 0.04 µM
  relative viability: 0.772
NCI-H2085; first compound 0.1265 µM
  relative viability: 0.829
NCI-H2085; first compound 0.4 µM
  relative viability: 0.598
NCI-H2085; first compound 1.265 µM
  relative viability: 0.52
NCI-H1793; first compound 0.04 µM
  relative viability: 0.345
NCI-H1793; first compound 0.1265 µM
  relative viability: 0.323
NCI-H1793; first compound 0.4 µM
  relative viability: 0.513
NCI-H1793; first compound 1.265 µM
  relative viability: 0.266
NCI-H1395; first compound 0.04 µM
  relative viability: 0.818
NCI-H1395; first compound 0.1265 µM
  relative viability: 0.793
NCI-H1395; first compound 0.4 µM
  relative viability: 0.676
NCI-H1395; first compound 1.265 µM
  relative viability: 0.604
LCLC-103H; first compound 0.04 µM
  relative viability: 0.538
LCLC-103H; first compound 0.1265 µM
  relative viability: 0.552
LCLC-103H; first compound 0.4 µM
  relative viability: 0.4
LCLC-103H; first compound 1.265 µM
  relative viability: 0.392
NCI-H520; first compound 0.04 µM
  relative viability: 0.504
NCI-H520; first compound 0.1265 µM
  relative viability: 0.408
NCI-H520; first compound 0.4 µM
  relative viability: 0.384
NCI-H520; first compound 1.265 µM
  relative viability: 0.483
H3255; first compound 0.04 µM
  relative viability: 0.524
H3255; first compound 0.1265 µM
  relative viability: 0.693
H3255; first compound 0.4 µM
  relative viability: 0.618
H3255; first compound 1.265 µM
  relative viability: 0.604
NCI-H322M; first compound 0.04 µM
  relative viability: 0.472
NCI-H322M; first compound 0.1265 µM
  relative viability: 0.521
NCI-H322M; first compound 0.4 µM
  relative viability: 0.452
NCI-H322M; first compound 1.265 µM
  relative viability: 0.437
ChaGo-K-1; first compound 0.04 µM
  relative viability: 0.213
ChaGo-K-1; first compound 0.1265 µM
  relative viability: 0.225
ChaGo-K-1; first compound 0.4 µM
  relative viability: 0.242
ChaGo-K-1; first compound 1.265 µM
  relative viability: 0.215
NCI-H2087; first compound 0.04 µM
  relative viability: 0.248
NCI-H2087; first compound 0.1265 µM
  relative viability: 0.29
NCI-H2087; first compound 0.4 µM
  relative viability: 0.227
NCI-H2087; first compound 1.265 µM
  relative viability: 0.186
LCLC-97TM1; first compound 0.04 µM
  relative viability: 0.338
LCLC-97TM1; first compound 0.1265 µM
  relative viability: 0.315
LCLC-97TM1; first compound 0.4 µM
  relative viability: 0.243
LCLC-97TM1; first compound 1.265 µM
  relative viability: 0.188
HCC-827; first compound 0.04 µM
  relative viability: 0.459
HCC-827; first compound 0.1265 µM
  relative viability: 0.475
HCC-827; first compound 0.4 µM
  relative viability: 0.404
HCC-827; first compound 1.265 µM
  relative viability: 0.328
